The subject of assay [1] is LoVo cells. As to the kind of experiment: Inhibition of the proliferation of tumor cells (MTT test), LoVo. It counts as cell-based, human. How it is done: (§1) Inhibition of the proliferation of tumor cells (MTT test)
(§2) 1×10^4 cells per well are inoculated into a 96-well microtiter plate. After 24 h, the test substances are added at various concentrations. Each group consists of 4 wells, the control is only incubated with medium. After 65 h, 50 μl of MTT (3-(4,5-dimethyl-2-thiazolyl)-2,5-diphenyl-2H-tetrazolium bromide; 2.5 mg/ml in PBS) are added and, after 7 h, the supernatant is removed. The color formed by the living cells is dissolved by addition of 100 μl of dimethyl sulfoxide/well. The extinction is measured at 492 nm for each well with the aid of a Multiscan photometer 340 CC (Flow). The cell lines used are obtainable as follows from the American Type Culture Collection: HUV-EC-C is ATCC CRL 1730; A-172 is ATCC CRL 1620; L 1210 is ATCC CCL 219; LoVo is ATCC CCL 229; C 6 is ATCC CCL 107 and a rat glioblastoma cell line.
(§3) The mean value is formed from the 4 wells of a group and the IC50 values are calculated from the dose-response curve using the Software 3.0 (Erithacus Software Ltd.).
(In general: Tetrazolium dyes change colour on reduction, which living cells bring about.)

In assay [2] the test system is HUV-EC-C. The experiment in a line: Inhibition of proliferation (MTT test), HUV-EC-C / HUVEC endothelial cells. It counts as cell-based, human. On the procedure:
as §1, §2, §3

For assay [3], the system named is A-172. As to the kind of experiment: Inhibition of the proliferation of tumor cells (MTT test), A-172. It is filed as cell-based, human. On the procedure: as §1, §2, §3
For assay [4], the system named is C 6. The experiment in a line: Inhibition of the proliferation of tumor cells (MTT test), C 6. It counts as cell-based, rat. On the procedure: as §1, §2, §3
The target in assay [5] is T1, Human DHODH (spleen) (Homo sapiens, UniProt Q02127).
T1 construct: Human DHODH (spleen) enzyme activity; from tissue; host or cells: human spleen
T1 sequence (Q02127 whole entry): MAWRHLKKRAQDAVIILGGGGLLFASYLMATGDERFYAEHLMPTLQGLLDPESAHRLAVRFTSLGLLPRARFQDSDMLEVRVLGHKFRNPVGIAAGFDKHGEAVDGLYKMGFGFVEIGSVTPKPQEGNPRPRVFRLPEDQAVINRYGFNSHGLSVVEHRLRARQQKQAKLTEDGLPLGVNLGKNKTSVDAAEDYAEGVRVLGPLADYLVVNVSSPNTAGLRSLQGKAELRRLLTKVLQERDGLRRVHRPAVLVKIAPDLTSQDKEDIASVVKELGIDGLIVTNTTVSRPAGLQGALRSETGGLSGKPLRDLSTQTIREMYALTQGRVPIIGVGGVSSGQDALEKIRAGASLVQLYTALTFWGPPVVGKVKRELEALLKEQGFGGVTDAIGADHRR
As to the kind of experiment: Human DHODH (spleen) enzyme activity. It is filed as biochemical.

Assay [6] has as its system L1210. The experiment in a line: Inhibition of the proliferation of tumor cells (MTT test), L1210. It is filed as cell-based. To be noted: Table 2; L1210, leukemia (mouse). How it is done: as §1, §2, §3
The subject of assay [7] is LoVo cells. The experiment in a line: MTT test on LoVo cells with added uridine. It counts as cell-based, human. To be noted: Homo sapiens, LoVo, Table 3. How it is done:
as §2, §3
The procedure is as in Example 6; uridine is additionally added to the batches.

Setting [8] is: Homo sapiens, Table 4, read-out: LoVo (tested as described in Example 6, MTT test).
[9] abbreviates: Homo sapiens, HUVEC, Table 4, HUVEC, read-out: HUVEC (tested as described in Example 6, MTT test).
[10] abbreviates: Homo sapiens, A 172, Table 4, A172, read-out: A172 (tested as described in Example 6, MTT test).
Setting [11] is: Rattus norvegicus, C6, Table 4, C 6, read-out: C 6 (tested as described in Example 6, MTT test).
The mark [12] stands for this setting: human DHODH (spleen), read-out: DHODH IC50.
Setting [13] is: Homo sapiens, Table 2, colonic carcinoma, no uridine, read-out: MTT Test IC50.
Where [14] appears, read: Homo sapiens, Endothelial cell, Table 2, HUV-EC-C, endothelial cell, read-out: MTT Test IC50.
The mark [15] stands for this setting: Homo sapiens, A 172, Table 2, A-172, glioblastoma, read-out: MTT Test IC50.
Setting [16] is: Rattus norvegicus, C6, Table 2, C 6, rat glioblastoma, read-out: MTT Test IC50.

25 molecules from patent US5886033A, “Use of isoxazole and crotonamide derivatives for the treatment of carcinomatous disorders” (Hoechst Aktiengesellschaft, priority 1995, dated 1999) can be followed below.

Structures can show the parent of a compound that is named as a salt. Where two headings read alike, the source gives them in different places.

Take `CC(C)=CCCC(O)=C(C#N)C(=O)Nc1ccc(C(F)(F)F)cc1` [Compound 25]: the IC50 in assay [1] (setting [8]) is 306 µM; in assay [2] (setting [9]), 301 µM; in assay [3] (setting [10]), 95 µM; in assay [4] (setting [11]), 87 µM.

Consider `N#CC(C(=O)Nc1ccc(Oc2ccc(F)cc2)cc1)=C(O)C1CCCC1` [Compound 20], for which the IC50 in assay [1] (setting [8]) is 119 µM; in assay [2] (setting [9]) it was > 400 µM; in assay [3] (setting [10]) it was 158 µM; in assay [4] (setting [11]), 182 µM.

As for `N#CC(C(=O)Nc1ccc(Oc2ccccc2)cc1)=C(O)C1CC1` [Compound 8], the IC50 in assay [1] (setting [8]) turned out to be 13 µM; in assay [2] (setting [9]) it was 138 µM; in assay [3] (setting [10]) it was 28 µM; in assay [4] (setting [11]), 18 µM.

Consider `N#CC(C(=O)Nc1ccc(C(F)(F)F)cc1)=C(O)C1CC1` [Compound 5], for which the IC50 came to 34 µM in assay [1] (setting [8]), 94 µM in assay [2] (setting [9]), 30 µM in assay [3] (setting [10]) and 5 µM in assay [4] (setting [11]).

Take `Cc1cc(Cl)ccc1Oc1ccc(NC(=O)C(C#N)=C(O)C2CC2)cc1` [Compound 16]: the IC50 worked out at 7 µM in assay [1] (setting [8]), 299 µM in assay [2] (setting [9]), 17 µM in assay [3] (setting [10]) and 36 µM in assay [4] (setting [11]).

In the case of `N#CC(C(=O)Nc1ccc(C(F)(F)F)cn1)=C(O)C1CC1` [Compound 23], the IC50 in assay [1] (setting [8]) was 75 µM; in assay [2] (setting [9]) it was > 400 µM; in assay [3] (setting [10]), 94 µM; in assay [4] (setting [11]), 7 µM.

`CC=CC=CC(O)=C(C#N)C(=O)Nc1ccc(C(F)(F)F)cc1` [Compound 26]: the IC50 in assay [1] (setting [8]) is 146 µM; in assay [2] (setting [9]) it was 378 µM; in assay [3] (setting [10]), 200 µM; in assay [4] (setting [11]) it was 24 µM.

Regarding `N#CC(C(=O)Nc1ccc(Br)cc1)=C(O)C1CC1` [Compound 7], the IC50 in assay [1] (setting [8]) was determined as 37 µM; in assay [2] (setting [9]), 267 µM; in assay [3] (setting [10]) it was 37 µM; in assay [4] (setting [11]), 11 µM.

Consider `Cc1cc(NC(=O)C(C#N)=C(O)C2CC2)ccc1C(F)(F)F` [Compound 12], for which the IC50 amounted to 0.539 µM in assay [5] (setting [12]); 55 µM in assay [1] (setting [8]); 322 µM in assay [2] (setting [9]); 43 µM in assay [3] (setting [10]); 6 µM in assay [4] (setting [11]).

Regarding `N#CC(C(=O)Nc1ccc(SC(F)(F)F)cc1)=C(O)C1CC1` [Compound 15], the IC50 in assay [1] (setting [8]) is 21 µM; in assay [2] (setting [9]), 98 µM; in assay [3] (setting [10]), 13 µM; in assay [4] (setting [11]), 2 µM.

Regarding `C=CCCC(O)=C(C#N)C(=O)Nc1ccc(C(F)(F)F)cc1` [Compound 17], the IC50 in assay [1] (setting [8]) was determined as 75 µM; in assay [2] (setting [9]), 127 µM; in assay [3] (setting [10]), 55 µM; in assay [4] (setting [11]), 186 µM.

As for `Cc1cc(NC(=O)C(C#N)=C(O)C2CC2)ccc1C(F)(F)F` [Compound 14], the IC50 in assay [1] (Table 4, read-out: LoVo (tested as described in Example 6, MTT test)) was determined as 61 µM; in assay [2] (Table 4, HUVEC, read-out: HUVEC (tested as described in Example 6, MTT test)) it was 197 µM; in assay [3] (Table 4, A172, read-out: A172 (tested as described in Example 6, MTT test)) it was 58 µM; in assay [4] (Table 4, C 6, read-out: C 6 (tested as described in Example 6, MTT test)), 7 µM.

Regarding `N#CC(C(=O)Nc1ccc(Cl)cc1)=C(O)C1CC1` [Compound 6], the IC50 was 24 µM in assay [1] (setting [8]), > 400 µM in assay [2] (setting [9]), 25 µM in assay [3] (setting [10]) and 11 µM in assay [4] (setting [11]).

As for `C=CC(O)=C(C#N)C(=O)Nc1ccc(C(F)(F)F)cc1` [Compound 9], the IC50 in assay [1] (setting [8]) was 400 µM; in assay [2] (setting [9]), > 400 µM; in assay [3] (setting [10]), 193 µM; in assay [4] (setting [11]) it was 21 µM.

As for `C=CCCC(O)=C(C#N)C(=O)Nc1ccc(C)c(C)c1` [Compound 21], the IC50 in assay [1] (setting [8]) came out at 27 µM; in assay [2] (setting [9]) it was 339 µM; in assay [3] (setting [10]) it was 63 µM; in assay [4] (setting [11]), 69 µM.

In the case of `C=CCC(O)=C(C#N)C(=O)Nc1ccc(F)cc1` [Compound 22], the IC50 in assay [1] (setting [8]) is 149 µM; in assay [2] (setting [9]) it was > 400 µM; in assay [3] (setting [10]), > 400 µM; in assay [4] (setting [11]), 103 µM.

On to `C#CCCC(O)=C(C#N)C(=O)Nc1ccc(Cl)cn1` [Compound 27], for which the IC50 in assay [1] (setting [8]) was 153 µM; in assay [2] (setting [9]), > 400 µM; in assay [3] (setting [10]), 142 µM; in assay [4] (setting [11]) it was 126 µM.

As to `N#CC(C(=O)Nc1ccc(C#N)cc1)=C(O)C1CC1` [Compound 2, 2-Cyano-3-cyclopropyl-3-hydroxyacrylic acid (4-cyanophenyl)amide sodium salt], the IC50 in assay [5] (setting [12]) stood at 0.625 µM; in assay [1] (setting [13]), 392 µM; in assay [1] (setting [8]), 392 µM; in assay [2] (setting [14]) it was 360 µM; in assay [2] (setting [9]), 360 µM; in assay [3] (setting [15]), 169 µM. In addition, the IC50 in assay [3] (setting [10]) came out at 169 µM; in assay [6] it was 6.1 µM; in assay [4] (setting [16]) it was 20 µM; in assay [4] (setting [11]), 20 µM; in assay [7] (uridine 0 μM), 359 µM; in assay [7] (uridine 1000 μM), 560 µM.

Regarding `Cc1cc(NC(=O)C(C#N)=C(O)C2CC2)ccc1F` [Compound 13], the IC50 in assay [1] (setting [8]) was 15 µM; in assay [2] (setting [9]), > 400 µM; in assay [3] (setting [10]), 32 µM; in assay [4] (setting [11]), 13 µM.

For `N#CC(C(=O)Nc1ccc(OC(F)(F)F)cc1)=C(O)C1CC1` [Compound 10], the IC50 in assay [1] (setting [8]) came to 21 µM; in assay [2] (setting [9]) it was 186 µM; in assay [3] (setting [10]), 25 µM; in assay [4] (setting [11]), 4 µM.

For the molecule `C=CCC(O)=C(C#N)C(=O)Nc1ccc(SC(F)(F)F)cc1` [Compound 19], the IC50 in assay [1] (setting [8]) was determined as 171 µM; in assay [2] (setting [9]), 135 µM; in assay [3] (setting [10]), 118 µM; in assay [4] (setting [11]) it was 32 µM.

Regarding `N#CC(C(=O)Nc1ccc(-c2ccccc2)cc1)=C(O)C1CC1` [Compound 24], the IC50 in assay [1] (Homo sapiens, read-out: LoVo (tested as described in Example 6, MTT test)) stood at 6 µM; in assay [2] (Homo sapiens, HUVEC, read-out: HUVEC (tested as described in Example 6, MTT test)), 74 µM; in assay [3] (Homo sapiens, A 172, read-out: A172 (tested as described in Example 6, MTT test)), 22 µM; in assay [4] (Rattus norvegicus, C6, read-out: C 6 (tested as described in Example 6, MTT test)), 34 µM.

Regarding `C#CCCC(O)=C(C#N)C(=O)Nc1ccc(C(F)(F)F)cc1` [Compound 1, N-(4-Trifluoromethylphenyl)-2-cyano-3-hydroxyhept-2-en-6-yne-carboxamide sodium salt], the IC50 in assay [5] was found to be 0.292 µM; in assay [1] (setting [13]), 137 µM; in assay [1] (setting [8]), 137 µM; in assay [2] (setting [14]), 164 µM; in assay [2] (setting [9]) it was 164 µM; in assay [3] (setting [15]), 78 µM. Also, the IC50 in assay [3] (setting [10]) is 78 µM; in assay [6], 9.1 µM; in assay [4] (setting [16]), 68 µM; in assay [4] (setting [11]), 68 µM; in assay [7] (uridine 0 μM) it was 168 µM; in assay [7] (uridine 1000 μM) it was 278 µM.

As for `N#CC(C(=O)Nc1ccc(Oc2ccc(F)cc2)cc1)=C(O)C1CCC1` [Compound 18], the IC50 turned out to be 110 µM in assay [1] (setting [8]), 159 µM in assay [2] (setting [9]), 190 µM in assay [3] (setting [10]) and 84 µM in assay [4] (setting [11]).

For the molecule `C=CCC(O)=C(C#N)C(=O)Nc1ccc(C(F)(F)F)cc1` [Compound 11], the IC50 in assay [1] (setting [8]) was determined as 160 µM; in assay [2] (setting [9]), 187 µM; in assay [3] (setting [10]) it was 55 µM; in assay [4] (setting [11]), 57 µM.
